Measured values reported in patent US10233182B2, “Substituted spirocyclic inhibitors of autotaxin” (X-Rx, Inc., priority 2014, dated 2019).
Structures can show the parent of a compound that is named as a salt.

Biological target: Autotaxin (Homo sapiens (Human), UniProt Q13822)
Test: Autotaxin LPC Cascade Assay
Format: biochemical
Conditions: Autotaxin 5 nM, LPC 100 μM, choline oxidase/HRP/Ampliflu Red fluorescence read-out, 2% DMSO, RT; read-out: IC50 ATX Activity
Method in brief: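 Choline liberated from LPC by autotaxin during 1 h, after a 10-min RT compound preincubation, was converted through choline oxidase/HRP to a fluorescent Ampliflu Red product.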

| Compound | IC50 |
| --- | --- |
| CC(C)[C@@H](NC(=O)C12CC3CC(CC(C3)C1)C2)C(=O)N1CCC2(CC1)C(=O)N(C)CN2c1ccc(C(=O)O)cc1 [Example 164, (R)-4-(8-(2-(1-Admantanecarboxamido)-3-methylbutanoyl)-3-methyl-4-oxo-1,3,8-triazaspiro[4.5]decan-1-yl)benzoic Acid] | ≥ 1000 nM |
| CC(C)[C@@H](NC(=O)c1cc(C(F)(F)F)ccc1F)C(=O)N1CCC2(CC1)C(=O)N(C)C(=O)N2c1ccc(=O)[nH]c1 [Example 22, (R)-2-Fluoro-N-(3-methyl-1-(3-methyl-2,4-dioxo-1-(6-oxo-1,6-dihydropyridin-3-yl)-1,3,8-triazaspiro[4.5]decan-8-yl)-1-oxobutan-2-yl)-5-(trifluoromethyl)benzamide] | ≥ 1000 nM |
| Cc1cccc(C(=O)N[C@@H](C(=O)N2CCC3(CC2)C(=O)N(C)CN3c2ccccc2)C2CCCCC2)n1 [Example 131, (R)—N-(1-Cyclohexyl-2-(3-methyl-4-oxo-1-phenyl-1,3,8-triazaspiro[4.5]decan-8-yl)-2-oxoethyl)-6-methylpicolinamide trifluoroacetic Acid Salt] | < 500 nM |
| CC(C)[C@@H](NC(=O)c1cc(C(F)(F)F)ccc1F)C(=O)N1CCC2(CC1)C(=O)N(C)C(=O)N2CC1CC1 [Example 75, (R)—N-(1-(1-(Cyclopropylmethyl)-3-methyl-2,4-dioxo-1,3,8-triazaspiro[4.5]decan-8-yl)-3-methyl-1-oxobutan-2-yl)-2-fluoro-5-(trifluoromethyl)benzamide] | ≥ 1000 nM |
| CC(C)[C@@H](NC(=O)c1cc(C(F)(F)F)ccc1F)C(=O)N1CCC2(CC1)C(=O)N(C)C(=O)N2c1ccc(=O)n(C)c1 [Example 23, (R)-2-Fluoro-N-(3-methyl-1-(3-methyl-1-(1-methyl-6-oxo-1,6-dihydropyridin-3-yl)-2,4-dioxo-1,3,8-triazaspiro[4.5]decan-8-yl)-1-oxobutan-2-yl)-5-(trifluoromethyl)benzamide] | 500 to 1000 nM |
| CC(C)[C@@H](NC(=O)c1cc(C(F)(F)F)ccc1F)C(=O)N1CCC2(CC1)C(=O)N(C)CN2c1ccc(-c2nn[nH]n2)cc1 [Example 227, (R)—N-(1-(1-(4-(2H-Tetrazol-5-yl)phenyl)-3-methyl-4-oxo-1,3,8-triazaspiro[4.5]decan-8-yl)-3-methyl-1-oxobutan-2-yl)-2-fluoro-5-(trifluoromethyl)benzamide] | < 500 nM |
| CC(C)[C@@H](NC(=O)c1cc(C(F)(F)F)ccc1F)C(=O)N1CCC2(CC1)C(=O)N(C)C(=O)N2c1cccc(C#N)c1 [Example 8, (R)—N-(1-(1-(3-Cyanophenyl)-3-methyl-2,4-dioxo-1,3,8-triazaspiro[4.5]decan-8-yl)-3-methyl-1-oxobutan-2-yl)-2-fluoro-5-(trifluoromethyl)benzamide] | < 500 nM |
| CC(C)[C@@H](NC(=O)c1cc(C(F)(F)F)ccc1F)C(=O)N1CCC2(CC1)C(=O)N(C)C(=O)N2c1ccc(OC(F)(F)F)cc1 [Example 26, (R)-2-Fluoro-N-(3-methyl-1-(3-methyl-2,4-dioxo-1-(4-(trifluoromethoxy)phenyl)-1,3,8-triazaspiro[4.5]decan-8-yl)-1-oxobutan-2-yl)-5-(trifluoromethyl)benzamide] | < 500 nM |
| CC(C)[C@@H](NC(=O)c1cc(OC(F)F)ccc1F)C(=O)N1CCC2(CC1)C(=O)N(C)CN2c1ccc(C(=O)O)cc1 [Example 165, (R)-4-(8-(2-(5-(Difluoromethoxy)-2-fluorobenzamido)-3-methylbutanoyl)-3-methyl-4-oxo-1,3,8-triazaspiro[4.5]decan-1-yl)benzoic Acid] | < 500 nM |
| Cc1cc(C(=O)N[C@@H](C(=O)N2CCC3(CC2)C(=O)N(C)CN3c2ccccc2)C(C)C)ccc1F [Example 139, (R)-4-Fluoro-3-methyl-N-(3-methyl-1-(3-methyl-4-oxo-1-phenyl-1,3,8-triazaspiro[4.5]decan-8-yl)-1-oxobutan-2-yl)benzamide] | < 500 nM |
| COC1CCC(N2C(=O)N(C)C(=O)C23CCN(C(=O)[C@H](NC(=O)c2cc(C(F)(F)F)ccc2F)C(C)C)CC3)CC1 (stereo partly drawn) [Example 241, (R)-2-Fluoro-N-(1-(1-(4-methoxycyclohexyl)-3-methyl-2,4-dioxo-1,3,8-triazaspiro[4.5]decan-8-yl)-3-methyl-1-oxobutan-2-yl)-5-(trifluoromethyl)benzamide] | ≥ 1000 nM |
| CCc1ccc(F)c(C(=O)N[C@@H](C(=O)N2CCC3(CC2)C(=O)N(C)CN3c2ccc(OC)cc2)C(C)C)c1 [Example 202, (R)-5-Ethyl-2-fluoro-N-(1-(1-(4-methoxyphenyl)-3-methyl-4-oxo-1,3,8-triazaspiro[4.5]decan-8-yl)-3-methyl-1-oxobutan-2-yl)benzamide] | < 500 nM |
| COc1ccc(CN2C(=O)N(C)C(=O)C23CCN(C(=O)[C@H](NC(=O)c2cc(C(F)(F)F)ccc2F)C(C)C)CC3)c(Cl)c1 [Example 119, (R)—N-(1-(1-(2-Chloro-4-methoxybenzyl)-3-methyl-2,4-dioxo-1,3,8-triazaspiro[4.5]decan-8-yl)-3-methyl-1-oxobutan-2-yl)-2-fluoro-5-(trifluoromethyl)benzamide] | < 500 nM |
| CC(C)[C@@H](NC(=O)c1cc(C(F)(F)F)ccc1F)C(=O)N1CCC2(CC1)C(=O)N(C)C(=O)N2c1ccc2c(c1)OCC(=O)N2 [Example 30, (R)-2-Fluoro-N-(3-methyl-1-(3-methyl-2,4-dioxo-1-(3-oxo-3,4-dihydro-2H-benzo[b][1,4]oxazin-7-yl)-1,3,8-triazaspiro[4.5]decan-8-yl)-1-oxobutan-2-yl)-5-(trifluoromethyl)benzamide] | 500 to 1000 nM |
| COc1ccc(N2C(=O)N(C)C(=O)C23CCN(C(=O)[C@H](NC(=O)c2cc(C(F)(F)F)ccc2F)C(C)C)CC3)cc1F [Example 6, (R)-2-Fluoro-N-(1-(1-(3-fluoro-4-methoxyphenyl)-3-methyl-2,4-dioxo-1,3,8-triazaspiro[4.5]decan-8-yl)-3-methyl-1-oxobutan-2-yl)-5-(trifluoromethyl)benzamide] | < 500 nM |
| Cc1cccc(C(=O)N[C@@H](C(=O)N2CCC3(CC2)C(=O)N(C)CN3c2cccc(C(N)=O)c2)C(C)C)c1F [Example 146, (R)—N-(1-(1-(3-Carbamoylphenyl)-3-methyl-4-oxo-1,3,8-triazaspiro[4.5]decan-8-yl)-3-methyl-1-oxobutan-2-yl)-2-fluoro-3-methylbenzamide] | ≥ 1000 nM |
| CC(C)[C@@H](NC(=O)c1cc(C(F)(F)F)ccc1F)C(=O)N1CCC2(CC1)C(=O)N(C)C(=O)N2c1ccc(NC2COC2)cc1 [Example 87, (R)-2-Fluoro-N-(3-methyl-1-(3-methyl-1-(4-(oxetan-3-ylamino)phenyl)-2,4-dioxo-1,3,8-triazaspiro[4.5]decan-8-yl)-1-oxobutan-2-yl)-5-(trifluoromethyl)benzamide] | ≥ 1000 nM |
| CC(C)[C@@H](NC(=O)c1cc(C(F)(F)F)ccc1F)C(=O)N1CCC2(CC1)NC(=O)N(C)C2=O [Example 126, (R)-2-Fluoro-N-(3-methyl-1-(3-methyl-2,4-dioxo-1,3,8-triazaspiro[4.5]decan-8-yl)-1-oxobutan-2-yl)-5-(trifluoromethyl)benzamide] | ≥ 1000 nM |
| CCc1ccc(F)c(C(=O)N[C@@H](C(=O)N2CCC3(CC2)C(=O)N(C)CN3c2ccc(NC(C)=O)cc2)C(C)C)c1 [Example 172, (R)—N-(1-(1-(4-Acetamidophenyl)-3-methyl-4-oxo-1,3,8-triazaspiro[4.5]decan-8-yl)-3-methyl-1-oxobutan-2-yl)-5-ethyl-2-fluorobenzamide] | < 500 nM |
